Test [1] has as its target T1, hMC4R (Homo sapiens, UniProt P32245). As to the kind of experiment: Competitive displacement binding, [125I]-NDP-MSH, hMC4R. The following applies: HEK293 cells.
Test [2] has as its target T2, hMC1R (Homo sapiens, UniProt Q01726). The conditions noted are these: human MC1R; HEK293 cells; cited from earlier work.
Test [3] addresses T2, hMC1R. As to the kind of experiment: cAMP AlphaScreen agonist assay, hMC1R. The conditions noted are these: for Agonist efficacy (in words): up to 100 μM, HEK293 cells, cAMP.
The target of the next test is hMC3R (Homo sapiens, UniProt P41968). As to the kind of experiment: cAMP AlphaScreen agonist assay, hMC3R. The following applies: for Agonist efficacy (in words): hMC3R, up to 100 μM, HEK293 cells, cAMP.
Test [4] addresses T1, hMC4R. As to the kind of experiment: cAMP AlphaScreen agonist assay, hMC4R. The following applies: for Agonist efficacy (in words): hMC4R, up to 100 μM, HEK293 cells, cAMP. On the technique in general: Alpha assays give light when donor and acceptor beads are brought close together.
In a further test the target is hMC5R (Homo sapiens, UniProt P33032). As to the kind of experiment: cAMP AlphaScreen agonist assay, hMC5R. The following applies: for Agonist efficacy (in words): hMC5R, up to 100 μM, HEK293 cells, cAMP.
The next test relates to melanocortin receptors. As to the kind of experiment: cAMP agonist pharmacology at the melanocortin receptors. In kind it is cell-based. The conditions noted are these: cAMP based.
For another test, the target named is mMC3R (Mus musculus, UniProt P33033). As to the kind of experiment: cAMP AlphaScreen agonist assay, mMC3R. The conditions noted are these: HEK293 cells.
The target of another test is mMC4R (Mus musculus, UniProt P56450). As to the kind of experiment: cAMP AlphaScreen agonist assay, mMC4R.
For another test, the target named is mMC1R (Mus musculus, UniProt Q01727). As to the kind of experiment: cAMP AlphaScreen agonist assay, mMC1R.
For another test, the target named is mMC5R (Mus musculus, UniProt P41149). As to the kind of experiment: cAMP AlphaScreen agonist assay, mMC5R.
Setting [5] is: HEK293, read-out: Maximal stimulatory response at 100 μM.

Values joined by “and” are separate entries in the source; they are usually repeats but may differ in a detail not shown here. Equal values may be shown once. Bridge positions count the residues as written; N and C are the ends. Ends that are not written are not given here. Peptide text beside a SMILES is read from it.

This is an account of results in paper PMC6007841 (Journal of medicinal chemistry, 2018).

Sequence of mMC1R (Q01727 whole entry): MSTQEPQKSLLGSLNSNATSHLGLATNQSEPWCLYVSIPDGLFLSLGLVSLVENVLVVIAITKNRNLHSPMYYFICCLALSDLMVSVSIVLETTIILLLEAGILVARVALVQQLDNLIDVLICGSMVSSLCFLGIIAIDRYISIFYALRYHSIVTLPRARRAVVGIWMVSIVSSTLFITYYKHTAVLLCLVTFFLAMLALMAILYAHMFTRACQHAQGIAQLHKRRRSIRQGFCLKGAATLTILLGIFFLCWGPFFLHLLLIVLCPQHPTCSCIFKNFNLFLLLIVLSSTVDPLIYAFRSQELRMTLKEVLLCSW
T2 sequence (Q01726 whole entry): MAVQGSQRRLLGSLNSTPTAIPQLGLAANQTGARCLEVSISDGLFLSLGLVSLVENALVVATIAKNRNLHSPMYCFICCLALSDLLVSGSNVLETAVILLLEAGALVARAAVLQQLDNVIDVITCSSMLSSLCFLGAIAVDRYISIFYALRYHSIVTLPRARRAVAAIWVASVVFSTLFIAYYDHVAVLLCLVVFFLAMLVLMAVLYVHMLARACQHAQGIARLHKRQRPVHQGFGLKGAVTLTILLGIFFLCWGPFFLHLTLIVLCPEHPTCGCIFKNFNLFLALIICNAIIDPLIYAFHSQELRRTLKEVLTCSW
Sequence of mMC5R (P41149 whole entry): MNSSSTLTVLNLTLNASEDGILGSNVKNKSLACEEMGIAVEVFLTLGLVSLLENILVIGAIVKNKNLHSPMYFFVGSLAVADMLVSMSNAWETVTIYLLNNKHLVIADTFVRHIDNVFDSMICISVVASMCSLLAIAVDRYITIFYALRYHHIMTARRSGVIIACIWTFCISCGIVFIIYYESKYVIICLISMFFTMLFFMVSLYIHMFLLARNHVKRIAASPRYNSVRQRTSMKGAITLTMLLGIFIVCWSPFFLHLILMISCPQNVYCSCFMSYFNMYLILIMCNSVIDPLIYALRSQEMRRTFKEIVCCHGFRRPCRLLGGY
Sequence of hMC5R (P33032 whole entry): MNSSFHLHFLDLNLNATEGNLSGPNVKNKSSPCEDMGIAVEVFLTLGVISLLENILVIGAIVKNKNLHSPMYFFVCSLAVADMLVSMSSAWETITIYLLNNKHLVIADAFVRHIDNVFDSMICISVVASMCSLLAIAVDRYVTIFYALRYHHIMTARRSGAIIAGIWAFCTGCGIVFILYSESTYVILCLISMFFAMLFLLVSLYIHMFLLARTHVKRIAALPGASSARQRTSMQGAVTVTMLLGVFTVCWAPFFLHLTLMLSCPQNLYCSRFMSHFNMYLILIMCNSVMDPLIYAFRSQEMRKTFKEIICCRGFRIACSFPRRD
T1 sequence (P32245 whole entry): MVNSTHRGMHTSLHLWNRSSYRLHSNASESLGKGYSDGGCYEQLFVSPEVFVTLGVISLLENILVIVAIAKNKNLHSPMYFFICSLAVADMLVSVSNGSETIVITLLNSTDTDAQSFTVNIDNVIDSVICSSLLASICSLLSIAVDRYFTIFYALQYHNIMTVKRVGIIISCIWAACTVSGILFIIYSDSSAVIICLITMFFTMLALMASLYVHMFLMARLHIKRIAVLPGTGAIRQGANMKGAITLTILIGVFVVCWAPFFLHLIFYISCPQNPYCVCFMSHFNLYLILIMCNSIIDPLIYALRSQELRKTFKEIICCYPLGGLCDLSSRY
Sequence of hMC3R (P41968 whole entry): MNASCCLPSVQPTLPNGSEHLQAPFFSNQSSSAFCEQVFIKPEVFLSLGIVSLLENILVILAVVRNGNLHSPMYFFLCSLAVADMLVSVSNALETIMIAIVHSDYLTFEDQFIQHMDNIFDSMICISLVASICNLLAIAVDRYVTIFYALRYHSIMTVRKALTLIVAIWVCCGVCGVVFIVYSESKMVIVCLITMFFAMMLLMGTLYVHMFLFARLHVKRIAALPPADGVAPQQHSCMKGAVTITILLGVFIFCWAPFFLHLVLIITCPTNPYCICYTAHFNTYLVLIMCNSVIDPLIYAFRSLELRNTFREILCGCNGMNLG
Sequence of mMC3R (P33033 whole entry): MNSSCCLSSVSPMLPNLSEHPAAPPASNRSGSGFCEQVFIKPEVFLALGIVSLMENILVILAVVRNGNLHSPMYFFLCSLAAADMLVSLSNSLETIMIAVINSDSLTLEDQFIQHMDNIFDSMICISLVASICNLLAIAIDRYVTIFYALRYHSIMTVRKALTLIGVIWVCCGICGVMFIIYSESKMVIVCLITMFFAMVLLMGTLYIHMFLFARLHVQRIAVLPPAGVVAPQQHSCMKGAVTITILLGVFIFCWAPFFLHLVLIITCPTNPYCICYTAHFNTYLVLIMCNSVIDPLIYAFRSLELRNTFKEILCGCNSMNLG
Sequence of mMC4R (P56450 whole entry): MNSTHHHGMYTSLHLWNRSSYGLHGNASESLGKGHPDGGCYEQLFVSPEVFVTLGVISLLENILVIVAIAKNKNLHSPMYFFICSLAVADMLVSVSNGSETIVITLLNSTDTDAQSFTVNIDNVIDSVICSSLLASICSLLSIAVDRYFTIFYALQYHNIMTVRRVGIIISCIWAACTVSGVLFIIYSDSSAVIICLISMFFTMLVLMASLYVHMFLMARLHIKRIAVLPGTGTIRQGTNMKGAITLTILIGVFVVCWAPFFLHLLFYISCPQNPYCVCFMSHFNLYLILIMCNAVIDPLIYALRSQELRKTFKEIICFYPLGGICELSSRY

Consider `CC[C@H](C)[C@@H]1NC(=O)[C@H](CCCCN)NC(=O)[C@H]([C@@H](C)O)NC(=O)[C@H](Cc2ccccc2)NC(=O)[C@H]([C@@H](C)CC)NC(=O)[C@@H]2CCCN2C(=O)[C@@H]2CSSC[C@@H](C(=O)N[C@@H](CCCCN)C(=O)O)NC(=O)[C@@H]3CSSC[C@H](NC(=O)[C@H](CC(N)=O)NC(=O)[C@H](Cc4ccc(O)cc4)NC(=O)[C@H](Cc4c[nH]cn4)NC(=O)[C@@H](N)CC(=O)O)C(=O)N[C@@H](C(C)C)C(=O)N[C@@H](CO)C(=O)N[C@@H](CO)C(=O)NCC(=O)NCC(=O)N[C@@H](CCC(N)=O)C(=O)N[C@@H](CSSC[C@H](NC(=O)[C@H]([C@@H](C)O)NC(=O)CNC(=O)[C@H](CCC(N)=O)NC1=O)C(=O)N[C@@H](Cc1ccc(O)cc1)C(=O)N[C@@H](CCCNC(=N)N)C(=O)NCC(=O)N[C@@H](CCCCN)C(=O)N[C@@H](C)C(=O)N[C@@H](CCCCN)C(=O)N3)C(=O)N[C@@H](CC(C)C)C(=O)N[C@@H](Cc1ccc(O)cc1)C(=O)N[C@@H](CO)C(=O)N[C@@H](C)C(=O)N2` [hBD1] (H-DHYNCVSSGGQCLYSACPIFTKIQGTCYRGKAKCCK-OH; disulfide 5-34, 12-27, 17-35; N-terminus and C-terminus assumed), for which, at hMC4R [1], the “Displacement of radiolabeled NDP-MSH (in words)” value is recorded as “not sufficient displacement of the radiolabel to generate an IC50 values”. Also, the Binding affinity at hMC1R [2] is 30 nM and 30.0 nM. Besides, the “Agonist efficacy (in words)” value on hMC1R [3] (hMC1R) is on record as “Full agonist efficacy”; at hMC3R, “no activity”; on hMC4R [4] it was “Full agonist efficacy”; at hMC5R, “no activity”.

For `CC[C@H](C)[C@H](NC(=O)[C@H](CCCCN)NC(=O)[C@@H](NC(=O)[C@H](Cc1ccccc1)NC(=O)[C@@H](NC(=O)[C@@H]1CCCN1C(=O)[C@H](CS)NC(=O)[C@H](C)NC(=O)[C@H](CO)NC(=O)[C@H](Cc1ccc(O)cc1)NC(=O)[C@H](CC(C)C)NC(=O)[C@H](CS)NC(=O)[C@H](CCC(N)=O)NC(=O)CNC(=O)CNC(=O)[C@H](CO)NC(=O)[C@H](CO)NC(=O)[C@@H](NC(=O)[C@H](CS)NC(=O)[C@H](CC(N)=O)NC(=O)[C@H](Cc1ccc(O)cc1)NC(=O)[C@H](Cc1c[nH]cn1)NC(=O)[C@@H](N)CC(=O)O)C(C)C)[C@@H](C)CC)[C@@H](C)O)C(=O)N[C@@H](CCC(N)=O)C(=O)NCC(=O)N[C@H](C(=O)N[C@@H](CS)C(=O)N[C@@H](Cc1ccc(O)cc1)C(=O)N[C@@H](CCCNC(=N)N)C(=O)NCC(=O)N[C@@H](CCCCN)C(=O)N[C@@H](C)C(=O)N[C@@H](CCCCN)C(=O)N[C@@H](CS)C(=O)N[C@@H](CS)C(=O)N[C@@H](CCCCN)C(=O)O)[C@@H](C)O` [hBD1red] (H-DHYNCVSSGGQCLYSACPIFTKIQGTCYRGKAKCCK-OH; N-terminus and C-terminus assumed), the “Agonist activity at the melanocortin receptors (in words)” value in the test with melanocortin receptors is on record as “no activity at the remaining receptor subtypes”. Also, the “Agonist efficacy (in words)” value at hMC1R [3] (hMC1R) and on hMC4R [4] was “partial agonist stimulation” throughout.

Consider `CC(C)C[C@H](NC(=O)[C@H](CS)NC(=O)[C@H](Cc1ccccc1)NC(=O)CNC(=O)CNC(=O)[C@H](Cc1c[nH]cn1)NC(=O)[C@H](CCC(N)=O)NC(=O)[C@H](CC(C)C)NC(=O)[C@H](CS)NC(=O)[C@H](CCCCN)NC(=O)[C@H](Cc1ccc(O)cc1)NC(=O)[C@H](CCC(N)=O)NC(=O)[C@@H](N)CC(=O)O)C(=O)N[C@@H](CCCNC(=N)N)C(=O)N[C@@H](CO)C(=O)N[C@@H](CO)C(=O)N[C@@H](CS)C(=O)N1CCC[C@H]1C(=O)N[C@@H](CO)C(=O)N[C@@H](CC(N)=O)C(=O)N[C@H](C(=O)N[C@@H](CCCCN)C(=O)N[C@@H](CC(C)C)C(=O)N[C@@H](CCC(N)=O)C(=O)NCC(=O)N[C@H](C(=O)N[C@@H](CS)C(=O)N[C@@H](CCCCN)C(=O)N1CCC[C@H]1C(=O)N[C@@H](CC(=O)O)C(=O)N[C@@H](CCCCN)C(=O)N1CCC[C@H]1C(=O)N[C@@H](CC(N)=O)C(=O)N[C@@H](CS)C(=O)N[C@@H](CS)C(=O)N[C@@H](CCCCN)C(=O)N[C@@H](CO)C(=O)O)[C@@H](C)O)[C@@H](C)O` [mBD1red] (H-DQYKCLQHGGFCLRSSCPSNTKLQGTCKPDKPNCCKS-OH; N-terminus and C-terminus assumed), for which the “Agonist efficacy (in words)” value was “did not possess agonist activity” at mMC3R (up to 100 μM); “did not possess agonist activity” at mMC4R (mMC4R, up to 100 μM, HEK293 cells, cAMP); “full agonist” on hMC1R [3] (hMC1R); “unable to stimulate” at hMC3R; “unable to stimulate” at hMC5R. Further, on hMC1R [3] (hMC1R, EC50 ratio mBD1red vs mBD1), the “Lower agonist potency compared to the cyclic mBD1” value is on record as 3 fold.

Consider “FLPKTLRKFFCRIRGGRCAVLNCLGKEEQIGRCSNSGRKCCRKKK (cysteines drawn unpaired) [mBD3*red]”, for which the Emax at 100 µM worked out at 40% on mMC1R (setting [5]); 40% on mMC4R (setting [5]); 35% at mMC5R (setting [5]); 45% on hMC1R [3] (setting [5]); 50% at hMC4R [4] (setting [5]); 40% at hMC5R (setting [5]). At mMC3R (100 μM, relative to maximal NDP-MSH signal), the “Maximal stimulatory response at 100 μM” value is on record as 35% @ 100 μM. Further, the EC50 (in general, the concentration needed to bring the measured effect to its halfway point) at hMC3R is over 100 µM.

Molecule “FLPKTLRKFFCRIRGGRCAVLNCLGKEEQIGRCSNSGRKCCRKKK (disulfide 11-40, 18-33, 23-41) [mBD3*]” had an EC50 at hMC3R of over 100 µM.

Consider “GIINTLQKYYCRVRGGRCAVLSCLPKEEQIGKCSTRGRKCCRRKK (cysteines drawn unpaired) [hBD3red]”, for which the EC50 on mMC1R, on mMC5R and at hMC3R was over 100 µM each time. Moreover, the “Agonist efficacy (in words)” value on mMC1R (mMC1R, up to 100 μM, HEK293 cells, cAMP) is “unable to stimulate”; at mMC5R (mMC5R, up to 100 μM, HEK293 cells, cAMP), “unable to stimulate”; at hMC3R, “unable to stimulate”.
